# Data from paper PMC8911046, “Identification of Kukoamine A, Zeaxanthin, and Clexane as New Furin Inhibitors” (International Journal of Molecular Sciences, 2022).
# “And” between values parts separate entries of the source, which are not always exact repeats. Equal values may be shown once. Residues, ends and D or L forms follow the SMILES beside them. *: point of attachment. Decanoyl = CCCCCCCCCC(=O)*; CH2Cl = ClC*
# Assays:
# [1] = target: T1, furin from the U-251 MG secretome (Homo sapiens, UniProt P09958); experiment: Furin inhibition assay in coadjuvants with CMK; type: biochemical; conditions: CMK alone, read-out: IC50 for CMK alone, physiological furin
# T1 construct: physiological furin secreted from U-251 MG cells; endogenous in cells; host or cells: U-251 MG human glioblastoma cells; conditioned medium (secretome) concentrated 10x
# Description: (§1) The IC50 was calculated only for those compounds that inhibited recombinant and physiological furin. For each compound concentration, furin activity’s maximum velocity (mRFU/min) was recorded. Then, by using GraphPad software (v. 8), the correlation between the decimal logarithm (compound concentration) and furin activity’s maximum velocity was calculated by nonlinear regression (curve fit) for XY analyses. From this statistical method, the IC50 was calculated with a 95% confidence interval (CI).
# Since furin inhibition by CMK had been tested only in physiological conditions, adjuvant inhibition assays were performed with furin from the U-251 MG secretome. Inhibition was assessed by using different concentrations of CMK (Cat.No. B5437; APExBIO) and the IC50 concentrations of selected virtual screening compounds or Clexane. In a 96-well black plate, various CMK (0–50 µM) concentrations were incubated with the IC50 concentrations of the rest of the compounds and with 10× U-251 MG secretome as described above. After 10 min incubation at room temperature, 50 µM furin specific fluorogenic substrate was added and the plate was read in a Multiskan Go plate reader at 380 and 460 nm for emission and excitation wavelengths, respectively, at 37 °C for 30 min.
# human recombinant furin = target: T2, human recombinant furin (Homo sapiens, UniProt P09958); experiment: Fluorogenic furin inhibition assay, recombinant furin; type: biochemical; conditions: 3.6 nM human recombinant furin, 50 µM fluorogenic substrate, pH 9
# T2 construct: purchased R&D Systems 1503-SE-010
# Description: Clexane (LMWH, enoxaparin sodium, Clexane, Sanofi Aventis S.A., Barcelona, Spain) and each candidate compound selected by virtual screening were assayed as inhibitors of human recombinant furin (1503-SE-010; Lot#INK2320031; R&D Systems) and physiological furin secreted from U-251 MG cells. For both types of furin, the fluorogenic specific substrate (mentioned above) was used. […] Compounds were reconstituted in their appropriate solvents (distilled water, ethanol, PBS, etc.), according to the supplier’s instructions. In a 96-well black plate, U-251 MG secretome concentrated 10× or 3.6 nM human recombinant furin were incubated with different compound concentrations for 10 min at room temperature, and then, 50 µM furin specific fluorogenic substrate was added to every well, except one blank. Fluorescence was recorded in the Multiskan Go plate reader at 380 and 460 nm for emission and excitation wavelengths, respectively, at 37 °C for 30 min.
# as §1, with “From this statistical method, the IC50 was calculated with a 95% confidence interval (CI).” left out
# 293T HEK cell line = experiment: Cell viability by 7-AAD flow cytometry; type: cell-based; conditions: for Alive (%) / Dead (%): 293T HEK; for percentage of live cells: half of the IC50 for physiological furin, no compound 94.25% ± 3.18%
# Description: New furin inhibitors identified by virtual screening were tested in cell viability assays. The 293T HEK cell line (human embryonic kidney cell line purchased from American Type Culture Collection) was used as healthy cell model. They were cultured in DMEM containing 4,5 g/L glucose, supplemented with 10% fetal bovine serum, 1% GlutaMax, and 0,1% gentamicin. They were maintained in Corning® T-75 flasks (catalog #430641; ThermoFisher Scientific, Waltham, MA, USA) at 37 °C and 5% carbon dioxide. At 100% cellular confluence, cells were subcultured in 12-well plates (flat bottom, sterile, NUNC brand, Biolab, Madrid, Spain) at 100,000 cells/mL for 24 h. Then, different concentrations (double, half, and full IC50 concentrations for physiological furin) of furin inhibitors were added to cells for 24 h, and cells were collected afterward. The experiment was run in duplicates. Then, the cell pellet was resuspended in running buffer (autoMACS ® Running Buffer–MACS Separation Buffer; order no.:130-091-221; Miltenyi Biotec, Madrid, Spain) and 7-AAD (Cat: 51-68981E; BD Biosciences, Madrid, Spain). Finally, this solution was evaluated in a flow cytometer (BD Accuri™ C6 Plus Flow Cytometer; BD Biosciences, Madrid, Spain) to calculate mortality rates. A blank solution with cell pellet resuspended in running buffer was used to discard cell autofluorescence. The results were analyzed in FlowJo software (v. 10).
# [2] = design: method as in PMID 27241194, PMID 28254666; conditions: rats or mice, doses between 5 and 20 mg/kg; cited from earlier work
# [3] = 2xIC50, single replicates of duplicate
# [4] = IC50, single replicates of duplicate
# [5] = IC50/2, single replicates of duplicate
# [6] = 293T cells, double IC50 concentration, 24 h
# T2 sequence (P09958 108-794): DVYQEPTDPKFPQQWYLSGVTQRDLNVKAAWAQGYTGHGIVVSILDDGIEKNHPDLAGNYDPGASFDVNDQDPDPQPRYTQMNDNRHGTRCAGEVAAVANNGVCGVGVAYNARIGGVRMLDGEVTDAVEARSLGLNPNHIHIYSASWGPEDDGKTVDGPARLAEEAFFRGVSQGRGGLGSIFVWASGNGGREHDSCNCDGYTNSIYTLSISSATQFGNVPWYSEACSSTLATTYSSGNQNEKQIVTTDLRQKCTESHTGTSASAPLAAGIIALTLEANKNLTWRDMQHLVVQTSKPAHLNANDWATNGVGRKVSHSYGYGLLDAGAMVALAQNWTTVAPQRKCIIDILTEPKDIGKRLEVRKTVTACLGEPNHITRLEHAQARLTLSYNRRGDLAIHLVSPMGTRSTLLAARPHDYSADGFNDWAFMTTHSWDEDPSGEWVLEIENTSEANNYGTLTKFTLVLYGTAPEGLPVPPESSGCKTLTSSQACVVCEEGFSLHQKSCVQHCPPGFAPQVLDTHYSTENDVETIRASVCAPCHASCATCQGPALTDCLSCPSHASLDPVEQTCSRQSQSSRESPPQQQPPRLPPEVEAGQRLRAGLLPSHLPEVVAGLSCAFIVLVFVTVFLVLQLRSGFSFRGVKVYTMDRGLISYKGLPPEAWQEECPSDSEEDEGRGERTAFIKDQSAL
# T1 sequence (P09958 108-715 limits assumed): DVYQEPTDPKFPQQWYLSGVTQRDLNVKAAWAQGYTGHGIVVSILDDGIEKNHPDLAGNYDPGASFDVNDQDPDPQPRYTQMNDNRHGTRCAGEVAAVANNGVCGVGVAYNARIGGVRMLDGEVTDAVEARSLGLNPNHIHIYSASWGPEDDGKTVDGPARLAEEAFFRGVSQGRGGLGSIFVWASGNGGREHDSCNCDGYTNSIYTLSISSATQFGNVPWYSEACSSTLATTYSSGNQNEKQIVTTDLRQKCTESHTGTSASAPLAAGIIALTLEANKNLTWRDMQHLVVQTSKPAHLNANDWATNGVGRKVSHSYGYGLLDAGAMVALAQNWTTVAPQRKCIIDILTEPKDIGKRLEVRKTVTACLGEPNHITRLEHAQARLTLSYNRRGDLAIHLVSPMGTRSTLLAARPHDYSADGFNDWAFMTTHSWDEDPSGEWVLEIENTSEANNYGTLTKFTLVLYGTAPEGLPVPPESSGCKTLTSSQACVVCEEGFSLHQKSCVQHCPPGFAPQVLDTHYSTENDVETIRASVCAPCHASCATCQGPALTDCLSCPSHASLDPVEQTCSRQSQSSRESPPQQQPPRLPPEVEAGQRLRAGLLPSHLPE
SMILES,IC50 [1],IC50 (human recombinant furin),Alive (%) (293T HEK cell line; [3]),Dead (%) (293T HEK cell line; [3]),Alive (%) (293T HEK cell line; [4]),Dead (%) (293T HEK cell line; [4]),Alive (%) (293T HEK cell line; [5]),Dead (%) (293T HEK cell line; [5]),effect on cell viability (293T HEK cell line; [6]),"effect on cell viability (293T HEK cell line; 293T cells, full IC50 concentration, 24 h)","percentage of live cells (293T HEK cell line; 293T cells, 24 h)",adverse effects [2],"reduction of cell viability (293T HEK cell line; 293T cells, IC50 concentration, 24 h)"
"CCCCCCCCCC(=O)N[C@@H](CCCNC(=N)N)C(=O)N[C@H](C(=O)N[C@@H](CCCCN)C(=O)N[C@@H](CCCNC(=N)N)C(=O)CCl)C(C)C [CMK, Decanoyl-Arg-Val-Lys-Arg-chloromethylketone] (Decanoyl-RVKR-CH2Cl)",4.2 µM,–,–,–,–,–,–,–,–,–,–,–,–
O=C(CCc1ccc(O)c(O)c1)NCCCNCCCCNCCCNC(=O)CCc1ccc(O)c(O)c1 [Kukoamine A],–,1070 µM,6.25% and 5.88%,94.1% and 93.8%,8.33% and 0%,91.7% and 100%,89.8% and 85.3%,10.2% and 14.7%,significantly reduced,significantly reduced,87.55% ± 1.48%,no significant reported adverse effects,–
CC1=C(/C=C/C(C)=C/C=C/C(C)=C/C=C/C=C(C)/C=C/C=C(C)/C=C/C2=C(C)C[C@@H](O)CC2(C)C)C(C)(C)C[C@H](O)C1 [Zeaxanthin],–,90.5 µM,1.10% and 15.7%,84.3% and 98.9%,32.8% and 33.9%,67.2% and 66.1%,78.2% and 84.0%,21.8% and 16.0%,nearly total death,–,81.1% ± 4.1%,–,61%
